The source made the active and inactive calls.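 The calls were made as follows: active = z-score above 3 at 5 µM with at least 500 cells counted in the well; inconclusive = wells under 500 cells, flagged as cytotoxic or low count; inactive = the rest.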

For the assay, the system named is MIN6 insulin promoter-GFP reporter, high-content imaging. The assay can be described thus: insulin promoter activators in MIN6 cells, imaging, high-content screening, mouse beta cells (AID 1625).
Broadly, the EC50 is the midpoint of the concentration-response curve. Consider `CCOc1cc([N+](=O)[O-])cc2c1C(=O)Nc1ccccc1O2`, for which the EC50 is > 16 µM (inactive). Under `Cc1ccc(NS(=O)(=O)c2cc([N+](=O)[O-])ccc2N/N=C/c2sc(N3CCOCC3)nc2-c2ccccc2)c(C)c1` stands > 16 µM (inactive); under `O=S(=O)(Nc1cc2nc3ccccc3nc2n1Cc1ccccc1)c1ccc(Cl)cc1`, 7.17 µM; under `CCN(CC)c1ccc(/C=C2/SC(=O)N(C(C)C)C2=O)o1`, 4.26 µM.

Regarding `N#CC1=C(N)C(C#N)(C#N)[C@H](c2ccoc2)[C@H]2CN(Cc3ccccc3)CC=C12`, the EC50 is 9.87 µM. `COc1cccc(C2C3CN(C)CC=C3C(C#N)=C(N)C2(C#N)C#N)c1OC` (stereo not drawn): the EC50 is 12.3 µM (inactive). Consider `CCN1CC=C2C(C1)C(c1ccc(Cl)s1)C(C#N)=C(N)C2(C#N)C#N` (stereo not drawn), for which the EC50 is 8.89 µM. Take `COC(=O)c1cc2c(-c3ccccc3)c(C)c3ccccn3c-2c1C(=O)OC`: the EC50 was > 16 µM (inactive). Under `CCN1/C(=C/c2ccc3cc(C)ccc3[n+]2CC)Sc2ccccc21` stands 1.1 µM; under `N#C/C(=C/c1ccc(N2CCOCC2)o1)c1ccc(Cl)cc1`, 9.12 µM. With `CC(C)(C)c1ccc(OCC(=O)Nc2ccc3c4c(cccc24)C(=O)NC3=O)cc1`, the EC50 was > 16 µM (inactive). Under `CN1/C(=C/C=C(C#N)C#N)C=Cc2ccccc21` stands > 16 µM (inactive); under `CC(C)(C)C(=O)/C=c1\s/c(=C\c2ccc(-c3ccc([N+](=O)[O-])cc3)o2)c(=O)n1CC(=O)NC(N)=O`, 0.829 µM.

As to `N#CC(C#N)=C1C=C2C=C(N3CCOCC3)CCC2CC1` (stereo not drawn), the EC50 is 2.56 µM.

In the case of `COc1cc2c3nnc(-c4ccc(F)cc4)c-3cn(Cc3ccc(F)cc3)c2cc1OC`, the EC50 is 5.41 µM.

Consider `Cc1nnc(NC(=O)c2sc3nc(-c4cccs4)cc(C(F)(F)F)c3c2N)s1`, for which the EC50 was 9.04 µM. With `CCCCCn1nc(-c2ccccc2)c2nc3ccccc3nc21` the figure was 8.72 µM. For the compound `CCN1CC=C2C(C#N)=C(N)C(C#N)(C#N)C(c3cc(Cl)ccc3Cl)C2C1` (stereo not drawn), the EC50 was 8.66 µM.

On to `CCN(CC)c1ccc(/C=C/C(=O)c2ccc(Br)cc2)cc1`, for which the EC50 is 7.06 µM. Under `CN1CCN(c2ccc(/C=C3\C(=O)NC(=S)N(c4cccc(Br)c4)C3=O)o2)CC1` stands > 16 µM (inactive); under `CC1=C/C(=C\C=C(C#N)C#N)N(C)c2ccccc21`, > 16 µM (inactive). Take `COc1cc(/C=C(\C#N)c2nc3ccccc3o2)ccc1O`: the EC50 was > 16 µM (inactive). Regarding `Cc1ccc2nc(/C(C#N)=C\c3ccc(N4CCOCC4)o3)[nH]c2c1`, the EC50 is 3.44 µM. Under `COCCN1C(=O)/C(=C/c2ccc(N3CCCC3)cc2)SC1=S` stands 12 µM (inactive); under `Nc1c(C(=O)c2ccc(Cl)cc2)sc2nsc(SCCN3CCOCC3)c12`, 5.95 µM. Under `Cc1cccc(NC(=O)/C=C/c2ccc([N+](=O)[O-])s2)c1` stands > 16 µM (inactive); under `COc1ccc(/C=C2\CC/C(=C\c3ccc(OC)cc3OC)C2=O)c(OC)c1`, > 16 µM (inactive). With `CN1CC=C2C(C#N)=C(N)C(C#N)(C#N)C(c3ccsc3)C2C1` (stereo not drawn) the figure was 10.4 µM (inactive); with `Cn1cc(/C=C2\SC(=S)N(NC(=O)c3ccccc3)C2=O)c2ccccc21`, > 16 µM (inactive). For `Nc1c(C(=O)N/N=C/c2cccnc2)oc2nc(-c3ccco3)cc(-c3ccco3)c12`, the EC50 was > 16 µM (inactive). Under `O=[N+]([O-])c1ccc(-c2ccc(/C=N/Nc3nc(N4CCCCC4)nc(N4CCCCC4)n3)o2)cc1` stands > 16 µM (inactive); under `O=c1[nH]c2ccccc2nc1/C=C/c1ccc(F)cc1`, > 16 µM (inactive). Under `CCCN1CCc2c(sc(NC(=S)NC(=O)c3ccccc3)c2C#N)C1` stands 7.92 µM.

Take `Cc1csc(NC(=O)c2sc3nc(-c4cccs4)ccc3c2N)n1`: the EC50 is > 16 µM (inactive). Under `CN(C)c1ccc(/C=C/C(=O)c2c(O)c3ccccc3oc2=O)cc1` stands 0.726 µM.

For the compound `N#C/C(=C/c1ccc(-c2ccc(S(N)(=O)=O)cc2)o1)c1nc2ccccc2s1`, the EC50 was 10 µM (inactive). Consider `CC(=O)Cc1cc(O)c2ccccc2c1OC(=O)c1ccc(Br)cc1`, for which the EC50 was > 16 µM (inactive). Under `Cc1cc(N2CCCC2)ccc1/C=C1/C(=O)N(C)C(=S)N1C` stands > 16 µM (inactive); under `CC1=CN2C(=N)/C(=C/c3ccc([N+](=O)[O-])o3)C(=O)N=C2S1`, > 16 µM (inactive); under `O=C1/C(=C/c2ccc(N3CCCC3)cc2)NC(=S)N1C1CC1`, 7.35 µM. With `CCCCN1C(=O)/C(=C/C=C2\N(C)c3ccccc3C2(C)C)SC1=S` the figure was 5.6 µM; with `CN1CC=C2C(C#N)=C(N)C(C#N)(C#N)[C@H](c3cccc(Cl)c3)C2C1` (stereo partly drawn), 8.14 µM; with `CCCNC(=O)Cn1c(=O)/c(=C\c2ccc(-c3ccc([N+](=O)[O-])cc3)o2)s/c1=C\C(=O)C(C)(C)C`, 0.359 µM. In the case of `CCCN1CC=C2C(C#N)=C(N)C(C#N)(C#N)C(c3cccc(OC)c3OC)C2C1` (stereo not drawn), the EC50 is 7.34 µM.

In the case of `CC(=O)Nc1sc(/C(C#N)=C\c2cccc(Cl)c2)nc1-c1ccc(C)cc1`, the EC50 was 8.92 µM.

In the case of `Cc1cc(/C=C2/C(=O)N(C)C(=S)N2C)ccc1N1CCCC1`, the EC50 was 1.61 µM. With `CCN(CC)c1ccc(/C=C2\SC(=O)N(C(C)C)C2=O)o1` the figure was 4.61 µM; with `COc1cc([C@@H]2[C@H]3CN(C)CC=C3C(C#N)=C(N)C2(C#N)C#N)cc2c1OCO2`, 8.67 µM. With `CC(=O)c1ccc2cccc3c2c1N=CN3C` the figure was > 16 µM (inactive); with `CCCC1C2CN(C(C)C)CC=C2C(C#N)=C(N)C1(C#N)C#N` (stereo not drawn), 5.53 µM.

For `Cc1cccn2c(=O)c(/C=C3\SC(=S)N(CC(C)C)C3=O)c(NCCCOC(C)C)nc12`, the EC50 is > 16 µM (inactive). For the compound `N#C/C(=C/c1ccc(N2CCCCC2)o1)c1cccc(F)c1`, the EC50 was 8.75 µM. With `N#Cc1c(-c2ccco2)cc(C2CC2)nc1SCC(=O)c1ccccc1` the figure was > 16 µM (inactive); with `CC(C)N1CC=C2C(C#N)=C(N)C(C#N)(C#N)C(c3ccccc3)C2C1` (stereo not drawn), 6 µM; with `COCCCNc1c2c3c(cccc3[nH]c1=O)C(=O)c1ccccc1-2`, 4.03 µM.

As for `O=C1S/C(=C/c2ccc(N3CCOCC3)o2)C(=O)N1Cc1ccc(F)cc1`, the EC50 is > 16 µM (inactive). As to `CCNc1ccc2noc3c2c1C(=O)c1ccccc1-3`, the EC50 was > 16 µM (inactive). With `COc1ccc(/C=C2\C(=O)NC(=S)N2C(=O)c2ccc(F)cc2)cc1` the figure was > 16 µM (inactive); with `Cc1c(-c2ccc(O)cc2)nc2nc(-c3ccccc3)c(-c3ccccc3)nn12`, 5.31 µM.

In the case of `CCOC(=O)N1CCN(S(=O)(=O)c2ccc3c(c2)oc(=O)n3C)CC1`, the EC50 was > 16 µM (inactive). `CN1C(=S)N(c2cccnc2)C(=O)/C1=C\c1ccc(N(C)C)cc1`: the EC50 is > 16 µM (inactive). With `Cc1cc(C)cc(N=Cc2[nH]c3ccc(Br)c(Cl)c3c2O)c1` the figure was 3.42 µM; with `Nc1c(C(=O)c2ccccc2)sc2nsc(SCCN3CCCC3)c12`, 8.41 µM. `C=CCN1C(=O)/C(=C/c2ccc(N(C)C)cc2)S/C1=N\c1nnc(CC)s1`: the EC50 is 3.86 µM. As for `CCCN1C(=O)S/C(=C\c2ccc(N3CCOCC3)o2)C1=O`, the EC50 was 13.9 µM (inactive). Consider `N#C/C(=C/c1ccc(N2CCOCC2)o1)c1ccc(Br)cc1`, for which the EC50 is 12.8 µM (inactive). With `COc1ccccc1N/C=C/c1onc(C)c1[N+](=O)[O-]` the figure was 2.22 µM; with `CCN(CC)c1ccc2cc(C(N)=O)/c(=N\NC(=O)c3ccncc3)oc2c1`, 9.67 µM; with `CCCSc1nc2sc3c(c2c(=O)[nH]1)CCN(Cc1ccccc1)C3`, > 16 µM (inactive). With `N#C/C(=C/c1ccc(-c2ccccc2)o1)c1nc(-c2cccs2)cs1` the figure was 0.98 µM. With `CCN1CCc2c(sc(NC(=O)Nc3ccc(Cl)c(Cl)c3)c2C(N)=O)C1` the figure was 1.4 µM. As for `N#Cc1ccc(-c2ccccc2)nc1SCC(=O)c1cccc(Cl)c1`, the EC50 is > 16 µM (inactive). As to `Nc1c(C(=O)C2CC2)sc2nc(-c3cccs3)cc(C(F)(F)F)c12`, the EC50 was 4.16 µM. Under `CCCCN1C(=O)C2(NNc3ccccc3O2)c2ccccc21` (stereo not drawn) stands > 16 µM (inactive). As for `O=C1S/C(=C/c2ccc(N3CCOCC3)o2)C(=O)N1Cc1c(F)cccc1Cl`, the EC50 is 1.76 µM.

Consider `CCOC(=O)CC1C(=O)NCCN1c1nc2ccc(C)cn2c(=O)c1/C=C1\SC(=S)N(C(C)CC)C1=O` (stereo not drawn), for which the EC50 is 0.748 µM.

On to `COc1cc(OC)c(-c2c3cc(O)c(=O)cc-3oc3cc(O)c(O)cc23)cc1OC`, for which the EC50 is 8.54 µM. Under `CCOC(=O)C1=C(C)NC(=O)NC1c1ccc(N2CCC(c3ccccc3)=N2)cc1` (stereo not drawn) stands > 16 µM (inactive). For the compound `COc1cc([C@@H]2[C@H]3CNCC=C3C(C#N)=C(N)C2(C#N)C#N)ccc1OC(C)C`, the EC50 was > 16 µM (inactive). `CCCN1C(=O)/C(=C\C=C2\N(CC)c3ccccc3C2(C)C)SC1=S`: the EC50 is > 16 µM (inactive).

As for `CC(C)OC(=O)CN1C(=O)S/C(=C/c2ccc(N3CCCCC3)o2)C1=O`, the EC50 is 1.7 µM. For `N#CC1CC(c2ccc([N+](=O)[O-])cc2)=NN1c1ccc([N+](=O)[O-])cc1` (stereo not drawn), the EC50 was > 16 µM (inactive). With `COc1ccc(N=C2NC(=O)S/C2=C\c2ccc(N(C)C)cc2)cc1` the figure was > 16 µM (inactive); with `Cc1ccc(S(=O)(=O)CCSc2nc(C)cc(C(F)(F)F)c2C#N)cc1`, > 16 µM (inactive). With `CCN1CCc2c(sc(NC(=S)NC(=O)c3ccc(Cl)cc3)c2C(N)=O)C1` the figure was 14.1 µM (inactive).

For the compound `CCN1CC=C2C(C#N)=C(N)C(C#N)(C#N)[C@H](c3cccc(OC)c3OC)[C@H]2C1`, the EC50 was 3.78 µM. Under `CC(C)N1CC=C2C(C#N)=C(N)C(C#N)(C#N)[C@H](c3ccoc3)[C@H]2C1` stands 8.51 µM.

Consider `O=[N+]([O-])c1ccc(C2=NN(c3ccccc3)C(c3ccco3)C2)cc1` (stereo not drawn), for which the EC50 is 9.19 µM.
